Data on one compound can be found in patent publication US6660468B1, “Vitro and in vivo models for screening compounds to prevent glucocorticoid-induced bone destruction” (Board of Trustees of the University of Arkansas, priority 1998, dated 2003).

In data set [1] the test system is Male Swiss Webster mice. Description: Serum and urine biochemical measurements (osteocalcin, deoxypyridinoline). It counts as in vivo, mouse. Particulars: 27 days; for Osteocalcin: serum; for Deoxypyridinoline: urine. On the procedure:
Animals at peak bone mass were used to avoid obscuring the negative impact of glucocorticoid excess on bone mineral density by the confounding effects of increased linear and radial growth. Before the experiment began, bone mineral density measurements were repeated to allocate the animals into groups (n=4-5) with equivalent spinal density values. […] These doses were administered for 27 days by subcutaneous implantation of slow-release pellets (Innovative Research of America, Sarasota, Fla.). Bone mineral density measurements were obtained at the beginning of the experiment and 27 days post-implantation. For dynamic histomorphometric measurements, tetracycline HCl (30 mg/kg body weight) was given intraperitoneally 17 and 23 days post-implantation. After 27 days, the mice were sacrificed, serum and urine specimens were taken, bone marrow aspirates were obtained from the right femur for ex vivo marrow cell cultures and the left femur and lumbar vertebrae were prepared for histomorphometric analysis. Livers were examined for fatty infiltration as a sign of prednisolone toxicity. The weight of the seminal vesicles (mg/100 g body weight) was used as an index of the androgen status of the animals (12). To help interpret these measurements, a separate group of animals was orchidectomized (n=5).
Serum osteocalcin was measured by radioimmunoassay using a goat anti-murine osteocalcin and murine osteocalcin as tracer and standard (Biomedical Technologies, Stoughton, Mass.). Urinary free deoxypyridinoline excretion was determined by a microtiter competitive enzyme immunoassay (Pyrilinks-D, Metra Biosystems, Mountain View, Calif.) and was expressed as a ratio to the urinary creatinine.

Data set [2] has as its system CFU-F, CFU-OB and osteoclast progenitors in bone marrow cells. Description: Osteoblastogenesis and osteoclastogenesis in ex vivo bone marrow cell cultures. Further details: species or system mouse. Particulars: 27 d. How it is done: One femur from each mouse was flushed with 5 ml of phenol red-free αMEM (Gibco BRL, Gaithersburg, Md.) containing 10% FBS (Hyclone, Logan, Utah) to obtain marrow cells. After the cells were rinsed and resuspended to obtain a single cell suspension, the nucleated cell count was determined using a Coulter Counter. Cells from each animal were cultured separately.
The number of colony-forming unit-fibroblast (CFU-F) and CFU-osteoblast (CFU-OB) present in the bone marrow preparations were determined (16-18). Briefly, cells were seeded at 1.5×10^6 per 10 cm^2 well for the determination of CFU-F number and maintained for 10 days in phenol red-free αMEM containing 15% preselected FBS, 50 μM ascorbic acid and 10 mM β-glycerophosphate (Sigma Chemical Co, St. Louis, Mo.) with one-half of the medium replaced after 5 days. After fixation in neutral buffered formalin and staining with hematoxylin, colonies containing a minimum of 20 fibroblastoid cells were enumerated. Cells were seeded at 2.5×10^6 cells per 10 cm^2 well for the determination of CFU-OB number and cultured for 25-28 days as described above for CFU-F. After fixation in 50% ethanol and 18% formaldehyde, cultures were stained using Von Kossa's method to visualize and enumerate colonies containing mineralized bone matrix.
Osteoclast formation in bone marrow cultures was assessed in replicate cultures (4-6 from each animal) maintained for 9 days in the presence of αMEM, 10% FBS and 10 nM 1.25(OH)2D3 (7). Briefly, marrow cells were cultured at 1.5×10^6 per 2 cm^2 well on 13 mm round Thermanox disks and maintained for 8 days in the presence of 10% FBS in αMEM supplemented with 10^−8 M 1.25(OH)2D3 (provided by Dr. Milan Uskokovic, Hoffman-LaRoche, Nutley, N.J.). At the end of the experiment, cells were processed for the autoradiographic detection of bound ^125I-calcitonin (^125I-CT) and stained for tartrate-resistant acid phosphatase. […] Therefore, mononucleated and multinucleated cells that both bind ^125I-CT and express TRAPase were designated as osteoclastic cells. The number of osteoclasts formed in this assay is a reflection of the number of osteoclast progenitors present in the bone marrow aspirate and the number of stromal/osteoblastic support cells that form during the culture period.
The number of CFU-F colonies, CFU-OB colonies, and osteoclastic cells formed from the marrow cells of each animal was expressed as the number per femur, which was calculated by multiplying the number of colonies or osteoclasts obtained per 10^6 cells seeded at the initiation of the cultures by the total number of marrow cells obtained from the animal.

Data set [3] relates to murine osteoblasts and osteocytes. The data set is described as follows: Apoptosis (TUNEL) in undecalcified murine bone sections. It counts as in vivo, mouse. How it is done:
Sections were mounted on silane-coated glass slides (Scientific Device Lab, Inc., Des Plains, Ill.), deplasticized and incubated in 10 mM citrate buffer, pH 7.6, in a microwave oven at 98° C. for 5 minutes. Slides were then incubated with 0.5% pepsin for 30 minutes at 37° C. Apoptotic cells were detected by the TUNEL reaction (transferase-mediated biotin-dUTP nick end-labeling) using Klenow terminal deoxynucleotidyl transferase (Oncor, Gaithersburg, Md.) in sections counterstained with 1% methyl green. The TUNEL reaction was noted within cell nuclei and the cells whose nuclei were clearly brown from the peroxidase-labeled anti-digoxigenin antibody instead of the blue-green from the methyl green were interpreted as positive. Plastic-embedded sections of weaned rat mammary tissue were used as a positive control. Negative controls were made by omitting the transferase. Morphological changes characteristic of apoptosis were examined carefully to minimize ambiguity regarding the interpretation of results. With these precautions, TUNEL has been unequivocally associated with apoptosis (19). […] Apoptosis was also assessed in transiliac bone biopsy specimens taken from two patients with glucocorticoid-induced osteoporosis (receiving 15 to 25 mg/d of prednisone for 3 to 6 yr) and from 12 age-, sex- and race-matched controls (13). Two longitudinal sections were examined from each patient and control subject. Osteoblasts were identified as cuboidal cells lining the osteoid-covered trabecular perimeter (7,9,13). Osteocytes were identified inside lacunae in mineralized bone.

`C[C@]12C=CC(=O)C=C1CC[C@@H]1[C@@H]2[C@@H](O)C[C@@]2(C)[C@H]1CC[C@]2(O)C(=O)CO` [prednisolone]: the “Decrease of serum osteocalcin compared to placebo” value in data set [1] is recorded as “more than 50%”. In data set [1] (0.7 mg/kg/d), the Osteocalcin came to 63.0 ± 27.7 µg/L and the Deoxypyridinoline came to 63.6 ± 14.7 μM/mM creatinine. For the same compound, in data set [1] (2.1 mg/kg/d), the Osteocalcin was found to be 46.4 ± 13.8 µg/L and the Deoxypyridinoline is reported as 81.5 ± 11.3 μM/mM creatinine. In data set [2] (higher dose (2.1 mg/kg/d), placebo 1250±374, NS), the CFU-F colonies stood at 698±104 number per femur. For the same compound, in data set [2] (higher dose), the “Decrease in number of CFU-OB colonies” value was determined as 86% and the “Decrease in number of osteoclastic cells” value was 65%. The same compound registered a CFU-OB colonies in data set [2] (higher dose, placebo 375±257) of 54±14 number per femur. Besides, the “Osteoclastic cells formed in response to 1.25(OH)2D3” value in data set [2] (higher dose, placebo 1387±920) amounted to 492±311 number per femur. The “Apoptotic hypertrophic chondrocytes and bone marrow cells” value in data set [3] (either dose, mice) is on record as “increase”. For the same compound, in data set [3] (higher dose, 27 days, vs controls), the “Increase in osteoblast apoptosis in vertebrae” value is 3 fold. Besides, the “Apoptotic osteocytes in femoral metaphyseal cortical bone” value in data set [3] (higher dose, 27 days, 131 osteocytes, none in controls) is 28%. For the same compound, in data set [3] (higher dose, 27 days, controls 0.66%±0.07), the “Osteoblast apoptosis in vertebral cancellous bone” value was 2.03%±0.34. For the same compound, the “fAp, fraction of osteoblasts that undergoes apoptosis” value in data set [3] (higher dose, estimate with tAp doubled, placebo 0.6) is on record as 0.9. Also, in data set [3] (higher dose, placebo 0.0066), the “Prevalence of osteoblast apoptosis (fraction)” value is listed as 0.0203. In data set [3] (mice, 27 days), the Osteoclast apoptosis result was “not observed”.
